Data from US12247010B2, “Tubulin inhibitors” (LIN BIOSCIENCE PTY LTD., priority 2017, dated 2025).

System: U87MG cells
Assay: Cytotoxicity assay (cell viability, CellTiter 96 Aqueous MTS)
Type: cell-based
Settings: Homo sapiens, U-87 MG, 72 h, 72 hours incubation, starting concentration 50 uM, 9 point half log dilution, average where tested repeatedly
Method in brief: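 U87MG cells plated at 7×10^3 cells/well overnight, then treated 72 h with 9-point half-log dilutions from a 50 uM starting concentration. Viability measured with CellTiter 96 Aqueous MTS; IC50 calculated from viability.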

| SMILES | IC50 [nM] |
| --- | --- |
| O=C(NCCCc1ccc(-c2ccccc2F)cc1)C1CC(F)(F)C1 [Compound 75, 3,3-difluoro-N-(3-(2′-fluoro-[1,1′-biphenyl]-4-yl)propyl)cyclobutane-1-carboxamide] | > 5000 |
| Cn1cnc(C(=O)NCCCc2ccc(-c3ccccc3F)cc2)c1 [Compound 88, N-(3-(2′-fluoro-[1,1′-biphenyl]-4-yl)propyl)-1-methyl-1H-imidazole-4-carboxamide] | > 5000 |
| Cn1cc(C(=O)NCCCc2ccc(-c3ccccc3F)cc2)cn1 [Compound 146, N-(3-(2′-fluoro-[1,1′-biphenyl]-4-yl)propyl)-1-methyl-1H-pyrazole-4-carboxamide] | 1000 to 5000 |
| O=C(CCCc1ccc(-c2ccccc2Cl)cc1)Nc1cccnc1 [Compound 160, 4-(2′-chloro-[1,1′-biphenyl]-4-yl)-N-(pyridin-3-yl)butanamide] | 1000 to 5000 |
| Cc1nc(C(=O)NCCCc2ccc(-c3ccccc3F)cc2)cs1 [Compound 141, N-(3-(2′-fluoro-[1,1′-biphenyl]-4-yl)propyl)-2-methylthiazole-4-carboxamide] | > 5000 |
| O=C(CCCc1ccc(-c2cccc(F)c2F)cc1)Nc1cccnc1 [Compound 149, 4-(2′,3′-difluoro-[1,1′-biphenyl]-4-yl)-N-(pyridin-3-yl)butanamide] | 501 to 1000 |
| O=C(CCCc1ccc(-c2ccc3[nH]cnc(=O)c3c2)cc1)Nc1cccnc1 [Compound 223, 4-(4-(4-oxo-1,4-dihydroquinazolin-6-yl)phenyl)-N-(pyridin-3-yl)butanamide] | > 5000 |
| O=C(Nc1cccnc1)N1CCN(c2ccc(-c3ccccc3F)cc2)CC1 [Compound 278, 4-(2′-fluoro-[1,1′-biphenyl]-4-yl)-N-(pyridin-3-yl)piperazine-1-carboxamide] | 1000 to 5000 |
| O=C(CCCc1ccc(-c2cscn2)cc1)Nc1cccnc1 [Compound 217, N-(pyridin-3-yl)-4-(4-(thiazol-4-yl)phenyl)butanamide] | > 5000 |
| COc1cccc(-c2ccc(CCCNC(=O)c3cncnc3)cc2)c1F [Compound 248] | 501 to 1000 |
| O=C(CCCc1ccc(-c2ccc3c(c2)CC(=O)N3)cc1)Nc1cccnc1 [Compound 222, 4-(4-(2-oxoindolin-5-yl)phenyl)-N-(pyridin-3-yl)butanamide] | < 500 |
| Cc1cc(C(=O)NCCCc2ccc(-c3ccccc3F)cc2)no1 [Compound 90, N-(3-(2′-fluoro-[1,1′-biphenyl]-4-yl)propyl)-5-methylisoxazole-3-carboxamide] | < 500 |
| O=C(NCCCc1ccc(-c2ccccc2F)cc1)c1ccc2[nH]nnc2c1 [Compound 70, N-(3-(2′-fluoro-[1,1′-biphenyl]-4-yl)propyl)-1H-benzo[d][1,2,3]triazole-5-carboxamide] | > 5000 |
| O=C(CCCc1ccc(-c2ccccc2F)cc1)Nc1ccc2c(c1)OCC(=O)N2 [Compound 53, 4-(2′-fluoro-[1,1′-biphenyl]-4-yl)-N-(3-oxo-3,4-dihydro-2H-benzo[b][1,4]oxazin-7-yl)butanamide] | 501 to 1000 |
| Cc1c(-c2ccc(CCCC(=O)Nc3cccnc3)cc2)ccc2[nH]ncc12 [Compound 180, 4-(4-(4-methyl-1H-indazol-5-yl)phenyl)-N-(pyridin-3-yl)butanamide] | < 500 |
| O=C(CCCc1ccc(-c2ccccc2F)cc1)NC1COC1 [Compound 55, 4-(2′-fluoro-[1,1′-biphenyl]-4-yl)-N-(oxetan-3-yl)butanamide] | 1000 to 5000 |
| O=C(CCCc1ccc(-c2cccc(C(F)(F)F)c2F)cc1)Nc1cccnc1 [Compound 220, 4-(2′-fluoro-3′-(trifluoromethyl)-[1,1′-biphenyl]-4-yl)-N-(pyridin-3-yl)butanamide] | < 500 |
| Cc1ccc(C(=O)NCCOc2ccc(-c3ccccc3F)cc2)cn1 [Compound 282, N-(2-((2′-fluoro-[1,1′-biphenyl]-4-yl)oxy)ethyl)-6-methylnicotinamide] | > 5000 |
| O=C(CCCc1ccc(-c2ccc3c(c2)NC(=O)C3)cc1)Nc1cccnc1 [Compound 177, 4-(4-(2-oxoindolin-6-yl)phenyl)-N-(pyridin-3-yl)butanamide] | 501 to 1000 |
| O=C(NCCCc1ccc(-c2ccccc2F)cc1)c1c[nH]c2ccccc12 [Compound 117, N-(3-(2′-fluoro-[1,1′-biphenyl]-4-yl)propyl)-1H-indole-3-carboxamide] | > 5000 |
| O=C(CCCc1ccc(-c2cc(C(=O)N3CCOCC3)ccc2F)cc1)Nc1cccnc1 [Compound 200, 4-(2′-fluoro-5′-(morpholine-4-carbonyl)-[1,1′-biphenyl]-4-yl)-N-(pyridin-3-yl)butanamide] | > 5000 |
| COc1cccc(-c2ccc(CCCNC(=O)c3cc(C)nn3C)cc2)c1F [Compound 238, N-(3-(2′-fluoro-3′-methoxy-[1,1′-biphenyl]-4-yl)propyl)-1,3-dimethyl-1H-pyrazole-5-carboxamide] | 501 to 1000 |
| O=C(NCCCc1ccc(-c2ccccc2F)cc1)c1cn[nH]c1 [Compound 66, N-(3-(2′-fluoro-[1,1′-biphenyl]-4-yl)propyl)-1H-pyrazole-4-carboxamide] | > 5000 |

| SMILES | IC50 [nM] |
| --- | --- |
| O=C(CCCc1ccc(-c2cc3cccnc3cc2F)cc1)Nc1cccnc1 [Compound 190, 4-(4-(7-fluoroquinolin-6-yl)phenyl)-N-(pyridin-3-yl)butanamide] | < 500 |
| COc1cccc(-c2ccc(CCCC(=O)Nc3cccnc3)cc2)c1F [Compound 184, 4-(2′-fluoro-3′-methoxy-[1,1′-biphenyl]-4-yl)-N-(pyridin-3-yl)butanamide] | < 500 |
| O=C(Cc1noc2ccccc12)NCCCc1ccc(-c2ccccc2F)cc1 [Compound 102, 2-(benzo[d]isoxazol-3-yl)-N-(3-(2′-fluoro-[1,1′-biphenyl]-4-yl)propyl)acetamide] | > 5000 |
| O=C(NCCCc1ccc(-c2ccc3ncccc3c2)cc1)c1cncnc1 [Compound 306, N-(3-(4-(quinolin-6-yl)phenyl)propyl)pyrimidine-5-carboxamide] | < 500 |
| O=C(NCCCc1ccc(-c2ccccc2F)cc1)C(F)(F)c1ccccc1 [Compound 108, 2,2-difluoro-N-(3-(2′-fluoro-[1,1′-biphenyl]-4-yl)propyl)-2-phenylacetamide] | < 500 |
| Cc1cccc(-c2ccc(CCCC(=O)Nc3cccnc3)cc2)c1F [Compound 219, 4-(2′-fluoro-3′-methyl-[1,1′-biphenyl]-4-yl)-N-(pyridin-3-yl)butanamide] | < 500 |
| Cc1oncc1C(=O)NCCCc1ccc(-c2ccccc2F)cc1 [Compound 285, N-(3-(2′-fluoro-[1,1′-biphenyl]-4-yl)propyl)-5-methylisoxazole-4-carboxamide] | > 5000 |
| Cc1ncccc1C(=O)NCCCc1ccc(-c2ccc3[nH]ncc3c2C)cc1 [Compound 310, 2-methyl-N-(3-(4-(4-methyl-1H-indazol-5-yl)phenyl)propyl)nicotinamide] | < 500 |
| COc1ccc(CC(=O)NCCCc2ccc(-c3ccccc3F)cc2)cc1OC [Compound 110, 2-(3,4-dimethoxyphenyl)-N-(3-(2′-fluoro-[1,1′-biphenyl]-4-yl)propyl)acetamide] | > 5000 |
| COc1ccc(CNC(=O)OCCc2ccc(-c3ccccc3F)cc2)cc1 [Compound 273, 2-(2′-fluoro-[1,1′-biphenyl]-4-yl)ethyl (4-methoxybenzyl)carbamate] | > 5000 |
| Cc1ccc(C(=O)NCCCc2ccc(-c3ccc4c(c3)OCC(=O)N4)cc2)cn1 [Compound 312, 6-methyl-N-(3-(4-(3-oxo-3,4-dihydro-2H-benzo[b][1,4]oxazin-7-yl)phenyl)propyl)nicotinamide] | < 500 |
| O=C(CCCc1ccc(-c2ccccc2F)cc1)Nc1cccnc1 [Compound 37, 4-(2′-fluoro-[1,1′-biphenyl]-4-yl)-N-(pyridin-3-yl)butanamide] | 501 to 1000 |
| O=C(CCCc1ccc(-c2cccnc2)cc1)Nc1cccnc1 [Compound 158, N-(pyridin-3-yl)-4-(4-(pyridin-3-yl)phenyl)butanamide] | > 5000 |
| O=C(CCCc1ccc(-c2ccccc2F)cc1)Nc1ccccn1 [Compound 40, 4-(2′-fluoro-[1,1′-biphenyl]-4-yl)-N-(pyridin-2-yl)butanamide] | > 5000 |
| Cn1nc2ccccc2c1C(=O)NCCCc1ccc(-c2ccccc2F)cc1 [Compound 143, N-(3-(2′-fluoro-[1,1′-biphenyl]-4-yl)propyl)-2-methyl-2H-indazole-3-carboxamide] | > 5000 |
| Cc1cc(-c2ccc(CCCC(=O)Nc3cccnc3)cc2)ccn1 [Compound 156, 4-(4-(2-methylpyridin-4-yl)phenyl)-N-(pyridin-3-yl)butanamide] | > 5000 |
| O=C(CCCc1ccc(-c2ccccc2F)cc1)Nc1ccc(O)nc1 [Compound 8, 4-(2′-fluoro-[1,1′-biphenyl]-4-yl)-N-(6-hydroxypyridin-3-yl)butanamide] | > 5000 |
| Cn1cncc1C(=O)NCCCc1ccc(-c2ccccc2F)cc1 [Compound 130, N-(3-(2′-fluoro-[1,1′-biphenyl]-4-yl)propyl)-1-methyl-1H-imidazole-5-carboxamide] | > 5000 |
| COc1ccc(F)c(-c2ccc(CCCC(=O)Nc3cccnc3)cc2)c1 [Compound 175, 4-(2′-fluoro-5′-methoxy-[1,1′-biphenyl]-4-yl)-N-(pyridin-3-yl)butanamide] | 501 to 1000 |
| Cn1nccc1C(=O)NCCCc1ccc(-c2ccccc2F)cc1 [Compound 106, N-(3-(2′-fluoro-[1,1′-biphenyl]-4-yl)propyl)-1-methyl-1H-pyrazole-5-carboxamide] | 501 to 1000 |
| O=C(CCCc1ccc(-c2c(F)cccc2F)cc1)Nc1cccnc1 [Compound 159, 4-(2′,6′-difluoro-[1,1′-biphenyl]-4-yl)-N-(pyridin-3-yl)butanamide] | 1000 to 5000 |
| Nc1ccc(C(=O)NCCCc2ccc(-c3ccccc3F)cc2)cn1 [Compound 105, 6-amino-N-(3-(2′-fluoro-[1,1′-biphenyl]-4-yl)propyl)nicotinamide] | < 500 |
| Cc1nn(C)c(C)c1-c1ccc(CCCC(=O)Nc2cccnc2)cc1 [Compound 216, N-(pyridin-3-yl)-4-(4-(1,3,5-trimethyl-1H-pyrazol-4-yl)phenyl)butanamide] | > 5000 |
